Where “and” joins values, the source holds several entries; their conditions need not be identical. Identical values can stand only once.
Key:
Colo205 [1] = assay: Analysis of the cell cycle phases, Colo205; format: cell-based; details: for Cell cycle phase (%) G2M: G2/M phase
Source text: The compounds of this family were also studied for the distribution of the population of tumor cells in the different phases of the cell cycle: quiescent cells, non-proliferating (G1/G0 phase), which present DNA/RNA synthesis capacity (S phase) and cell division cells (G2/M phase).

tumor cells line Colo205 = assay: Colo205 cell count; format: cell-based; details: compared to cells treated with culture medium only
Procedure: The compounds were tested for their ability to reduce the number of cells in the tumor, compared to cells treated with culture medium only. In Table 4, the results obtained are shown.

Colo205 [2] = assay: Determination of apoptotic cells (subG1), Colo205, flow cytometry; format: cell-based; details: sub-diploid DNA content
Source text: Determination of Apoptotic Cells (subG1)-Colo205
In this experiment, the proportion of apoptotic cells was identified, that is, cells showing DNA content below normal (sub-diploid) in flow cytometry testing.

Colo205 [3] = assay: In vitro cytotoxicity, Colo205 colon line; format: cell-based; details: Homo sapiens, COLO 205; Colo205, colon; read-out: IC50
CRO2B = assay: In vitro cytotoxicity, CRO2B carcinoid line; format: cell-based; details: Homo sapiens, carcinoid, read-out: IC50
HT-29 = assay: In vitro cytotoxicity, HT-29 colon line; format: cell-based; details: Homo sapiens; HT-29, colon; read-out: IC50
SW620 = assay: In vitro cytotoxicity, SW620 colon line; format: cell-based; details: Homo sapiens, SW-620; SW620, colon; read-out: IC50
PANC1 = assay: In vitro cytotoxicity, PANC1 pancreas line; format: cell-based; details: Homo sapiens, PANC-1; PANC1, pancreas; read-out: IC50
CaCo2 = assay: In vitro cytotoxicity, CaCo2 colon line; format: cell-based; details: Homo sapiens, Caco-2; CaCo2, colon; read-out: IC50
MIAP2 = assay: In vitro cytotoxicity, MIAP2 pancreas line; format: cell-based; details: Homo sapiens; MIAP2, pancreas; read-out: IC50
BxPC3 = assay: In vitro cytotoxicity, BxPC3 pancreas line; format: cell-based; details: Homo sapiens, BXPC-3; BxPC3, pancreas; read-out: IC50
[4] = tested on: lines of human carcinoma tested; assay: In vitro cytotoxicity against the panel of human carcinoma lines; details: tumor cell lines of human carcinoma tested
[5] = tested on: FN-1 (Normal human fibroblast); assay: Cytotoxicity, normal human fibroblasts; format: cell-based
Procedure: Fragments of cutaneous biopsies from patients treated by the Dermatology Service of the Clinic Hospital of the Medicine School of USP were removed for routine diagnostic procedures and part of the surgical flap edge immersed in Eagle culture medium modified by Dulbecco's (DMEM, Sigma Chemical Co., St. Louis, Mo., USA) added of 10% fetal bovine serum (Cultilab Ltda., Campinas-SP), […] and 50 ng/ml amphotericin B at 4 C and kept at 4 C for a maximum of 16 hours.
The fragments were washed three times in the same solution, cut into fragments of approximately 1 mm^3 and transferred to 25 cm^2 culture flasks, kept at 37 C, humid atmosphere containing 5% CO2. Cell growth monitored daily, photo documented in inversion microscopy and culture medium exchanged every 2 or 3 days, according to cell metabolism.
After 7 days, the first change in the culture medium of the flasks was performed once cell growth started, the culture medium was renewed every three days. Plastic flasks were used for cultivation of 25 cm^2 of cultivated area, where more 3 ml of DME medium containing 10% fetal bovine serum and 1% of antibiotic-antimycotic solution will be added.
The cell viability test was performed to verify the effect of the various compounds on the various concentrations previously established: on the lines of tumor cells B16F10 and normal human fibroblasts. The MTT method consists of a cell viability test that measures the activity of mitochondrial dehydrogenase. MTT is a colorimetric method based on the capacity of living cells to reduce salt 3-(4,5-di-methylazole-2-IL)-2,5-diphenyl tetrazolium bromide in the formazan product (Mosmann, 1983). […]
The 96-well plate was read by the spectrophotometer (Spectra MAX-190) using the wavelength of 570 nm. The results were analyzed by absorbance of each well. The percentage of viability was obtained using the following formula: [(Absorbance of treated cells/Absorbance of untreated cells)×100]. […]

[6] = tested on: murine melanoma cells B16F10; assay: MTT cytotoxicity in B16F10 melanoma cells; format: cell-based
Procedure: The tumor line of murine melanoma B16F10 was donated by the Ludwig-Switzerland Institute. Adherent cell suspensions of B16F10 cells were obtained for all experimental procedures by treating culture flasks with trypsin 0.2% for 5 minutes and inactivated with 10% fetal bovine serum. The detached cells were centrifuged twice, resuspended in supplemented RPMI-1640 medium. The count was performed in Malassez chamber, and the cell concentration was adjusted in 5×10^5 cells/ml, in RPMI-1640 culture medium supplemented with 10% fetal bovine serum and 7 ug polymyxin-B (Sigma Chemical Company, St Louis Mo.-USA).
Cell viability was determined by the Trypan Blue exclusion test, being greater than 95% of viable cells. The cells were grown in plates with 96 well plate flat bottoms (Corning), at a concentration of 2×10^5 cells, maintained for 24 hours in a CO2 oven at 37° C. After this period, the plates were centrifuged for 5 minutes, at 2000 rpm at 4° C., the supernatant discarded and added different concentrations of the compounds, diluted in RPMI-1640 culture medium, supplemented and increased by 7 μg of Polymyxin-B (Sigma Chemical Company). After treatment with the various diluted compounds in complete culture medium, the cells were incubated with 0.5 mg/mL of MTT reactive.
The cell viability test was performed to verify the effect of the various compounds on the various concentrations previously established: on the lines of tumor cells B16F10 and normal human fibroblasts. The MTT method consists of a cell viability test that measures the activity of mitochondrial dehydrogenase. MTT is a colorimetric method based on the capacity of living cells to reduce salt 3-(4,5-di-methylazole-2-IL)-2,5-diphenyl tetrazolium bromide in the formazan product (Mosmann, 1983). After the cells plating (concentration of 1×10^4 per well of the culture plate) in RPMI-1640 medium and 10% SFB medium, they were maintained at 37° C. for periods of 24, 48, 72 and 96 hours. Four hours before the set time was completed, MTT 20 μL (Sigma) was added (final concentration of […]). The plates were kept in the oven for the remaining four hours. After the stipulated time, 180 μL of the supernatant were removed from each well and then added 150 μL of dimethyl sulfoxide (Sigma) homogenizing well for the complete dissolution of the salt crystals formed by the mitochondrial metabolism resulting in a staining.
The 96-well plate was read by the spectrophotometer (Spectra MAX-190) using the wavelength of 570 nm. The results were analyzed by absorbance of each well. The percentage of viability was obtained using the following formula: [(Absorbance of treated cells/Absorbance of untreated cells)×100]. The experiments were carried out in quadruplicate.
The samples of the compounds obtained by synthesis chemistry were diluted in DMSO solution at the final concentration of 10%.

[7] = tested on: HUVEC (Normal human endothelial cell); assay: Cytotoxicity, HUVEC normal cells
[8] = tested on: 4T1 (murine mammary carcinoma); assay: Cytotoxicity, 4T1 cells; format: cell-based; details: Mus musculus, read-out: CI50% tumor cells
[9] = tested on: SCC9 (squamous-cell carcinoma of the oral cavity); assay: Cytotoxicity, SCC9 cells; format: cell-based; details: Homo sapiens, SCC-9, read-out: CI50% tumor cells
[10] = tested on: MCF-7 (human mammary adenocarcinoma); assay: Cytotoxicity, MCF-7 cells; format: cell-based; details: MCF7, read-out: CI50% tumor cells

| SMILES | Cell cycle phase (%) G1/G0 (Colo205 [1]) [%] | Cell cycle phase (%) G2M (Colo205 [1]) [%] | Cell cycle phase (%) S (Colo205 [1]) [%] | Relative number of cells (% ± standard deviation) (tumor cells line Colo205) [%] | Percentage of cells (apoptotic, subG1) (Colo205 [2]) [%] | IC50 (Colo205 [3]) [µM] | IC50 (CRO2B) [µM] | IC50 (HT-29) [µM] | IC50 (SW620) [µM] | IC50 (PANC1) [µM] | IC50 (CaCo2) [µM] | IC50 (MIAP2) [µM] | IC50 (BxPC3) [µM] | cytotoxic activity (in words) [4] | further results |
| --- | --- | --- | --- | --- | --- | --- | --- | --- | --- | --- | --- | --- | --- | --- | --- |
| O=CC=C(Cl)c1ccc(OC(=O)c2ccccc2)cc1OC(=O)c1ccccc1 [Compound 27, 3-Chloro-3-(2,4-benzoyloxy-phenyl)propenal] | 54.2 ± 0.35 | 12.4 ± 0.63 | 33.4 ± 0.21 | 32.3 ± 1.017 | 18.0 ± 0.354 | – | – | – | – | – | – | – | – | – | – |
| CC(=O)c1ccc(OCC=C(C)C)cc1 [Compound 1, 4-(3-methylbut-2-enyl-oxyi)acetophenone] | 48.0 ± 2.54 | 5.0 ± 2.26 | 47.0 ± 0.28 | 70.2 ± 0.339 | 5.2 ± 0.566 | 1030 | 666 | 455 | 980 | 759 | 759 | 823 | 725 | showed no cytotoxic activity | – |
| CCSC(=CC(=C(C#N)C#N)c1ccc(OCC=C(C)C)cc1)SCC [Compound 3] | – | – | – | – | – | 14.3 | 6.51 | 3.9 | 11.7 | 50 | 8.07 | 3.9 | 24.2 | potent cytotoxic activity | – |
| N#CC(C#N)=C/C=C(\Cl)c1ccccc1OC(=O)c1ccccc1 [Compound 6, 2-(1-chloro-4,4-dicyano-buta-1,3-dienyl)phenyl Benzoate] | 64.3 ± 1.69 | 16.0 ± 0.28 | 19.7 ± 1.48 | 12.7 ± 0.339 | 41.8 ± 0.141 | 16.4 | 7.46 | 4.47 | 13.4 | 57.3 | 9.25 | 4.47 | 27.7 | potent in vitro activity | activity against fibroblasts (in words) ([5]; fibroblasts): significant activity; IC50 ([6]; Mus musculus, B16-F10, B16F10 melanoma, 24 hours of culture, MTT, read-out: CI50% (the source's name)): 30.6 µg/mL and 91.6 µM |
| COc1ccc(/C=C/C(Cl)=C/C=C(C(C)=O)C(C)=O)cc1OC [Compound 24, 3-((2Z,4E)-3-chloro-5-(3,4-dimethoxyphenyl)penta-2,4-dien-ylidene)pentane-2,4-dione] | – | – | – | – | – | – | – | – | – | – | – | – | – | – | CI50% Normal cells ([5]; FN-1): 61.80 µM; CI50% Normal cells [7]: 114 µM |
| CC(=O)c1ccccc1C(=O)Oc1ccccc1 [Compound 4, 2-Acetyl Benzoate of Phenyl] | – | – | – | – | – | – | – | – | – | – | – | – | – | inactive | – |
| CC(=O)C(=C/C=C(\Cl)c1ccc(I)cc1)C(C)=O [Compound 18, 3-acetyl-6-chloro-6-(4-iodophenyl)-hexa-3,5-diene-2-ona] | – | – | – | – | – | – | – | – | – | – | – | – | – | – | IC50 [8]: 3.71 µM; IC50 [9]: 10.9 µM; IC50 [10]: 0.666 µM; times more active ([6]; compared with the acetylacetone-derived benzoate isomers): ~7 times |

Source: US20230130823A1, “PROCESS FOR THE PRODUCTION OF ANTITUMOUR PHARMACEUTICAL COMPOSITIONS USING PUSH-PULL BUTADIENES, COMPOUNDS AND USES THEREOF” (ANHANGUERA EDUCACIONAL PARTICIPAÇÕES S/A, priority 2019, published 2023)
